Assay results reported in patent US10759814B2, “Pharmaceutical compositions containing substituted polycyclic pyridone derivatives and prodrug thereof” (priority 2016, dated 2020).
Where “and” joins values, the source holds several entries; their conditions need not be identical. Equal values may be shown once. Read-outs that look alike come from different tables or passages of the source.

Columns and labels:
[1] = type: in vivo; conditions: after oral administration of Compound II-6 to rat under non-fasting conditions
Text: FIG. 1 is a result of measuring the plasma concentration of Compound III-2, after oral administration of prodrug Compound II-6, the parent compound of which is Compound III-2, to rat under non-fasting conditions.
FIG. 2 is a result of measuring the plasma concentration of Compound II-6, after oral administration of prodrug Compound II-6, the parent compound of which is Compound III-2, to rat under non-fasting conditions.
Test Example 13: Transition of Plasma Concentration
The plasma concentration of Compound III-2 and Compound II-6 after oral administration of prodrug Compound II-6, the parent compound of which was Compound III-2, to rat under non-fasting conditions was measured.

influenza virus [2] = type: in vivo, human
[3] = type: in vivo, human; conditions: Compound II-6 single 40 or 80 mg; Oseltamivir 75 mg twice a day for 5 days
Text: (4) Incidence of side effects
(4) Incidence of Side Effects
The number of side-effect episodes and the number of patients with side effect were counted for each administration group.

influenza virus [4] = experiment: Clinical test (Test Example 15): time to alleviation of influenza symptoms; conditions: for Time to alleviation of influenza symptoms, difference from placebo / Time to alleviation of influenza symptoms, hazard ratio (Cox proportional hazard model relative to placebo) / Time to alleviation of influenza symptoms, median value: ITTI; for Time to alleviation of influenza symptoms, median value: influenza patients 20 to <65 years old; for Time until cough symptom is alleviated, median value / Time until fatigue symptom is alleviated, median value / Time until feverishness or chills symptom is alleviated, median value / Time until headache symptom is alleviated, median value / Time until muscular or joint pain symptom is alleviated, median value / Time until nasal congestion symptom is alleviated, median value / Time until sore throat symptom is alleviated, median value: patients with symptom moderate or severe at baseline
Text: Test Example 15: Clinical Test
As for the primary endpoint, subjects made evaluations by themselves on a 4-point scale [0: none, 1: mild, 2: moderate, 3: severe] concerning the time to alleviation of influenza symptoms (the time from the beginning of administration of the investigational drug until 7 influenza symptoms (“cough”, “sore throat”, “headache”, “nasal congestion”, “feverishness or chills”, “muscular or joint pain”, and “fatigue”) were alleviated) to evaluate the efficacy of the investigational drug over the placebo.
Patients who satisfied all of the following criteria were selected as subjects.
(a) Male or female patients at 20 years old or older and younger than 65 years old
(b) Patients satisfying all of the following criteria and diagnosed with influenza virus infectious disease
The main efficacy endpoint is the time to alleviation of influenza symptoms (the time to alleviation of influenza symptoms).
It is the time from the beginning of administration until alleviation of influenza symptoms. Alleviation of influenza symptoms refers to when all 7 influenza symptoms (cough, sore throat, headache, nasal congestion, feverishness or chills, muscular or joint pain, fatigue) become “0: none” or “1: mild” in the patient diary that the subject keeps, and this condition continues at least 21.5 hours (24 hours—10%).
Secondary Efficacy Endpoint
The secondary efficacy endpoint is as follows.
(1) Time to Alleviation of Each Influenza Symptom
It is the time from the beginning of administration until alleviation of each influenza symptom. Alleviation of a symptom refers to when the target item becomes “0: none” or “1: mild”, and this condition continues at least 21.5 hours (24 hours—10%).
Analysis of Primary Endpoint
As for the time to alleviation of influenza symptoms, which is the primary endpoint, the primary analysis and the secondary analysis are described. In addition to the ITTI group, the primary analysis was also performed on the PPS group for sensitivity analysis. Other analyses were performed only on the ITTI group.
The hazard ratio, 95% confidence interval, and P value of each administered group relative to the placebo group were calculated by a Cox proportional hazard model using the time to alleviation of influenza symptoms as a response, the administered groups as fixed effects, and the current smoking habit and the total score of 7 influenza symptoms at baseline before administration, which are allocation factors, as covariates. In order to prevent an increase of the probability of type I error due to performing the test multiple times, the P value was adjuste d by the Hommel's method.
The placebo group and each investigational drug administered group were compared by stratified generalized Wilcoxon test using the time to alleviation of influenza symptoms as a response, the administered groups as explanatory variables, and the category (11 points or less, 12 points or more) of the total score of 7 influenza symptoms before administration and the smoking habit, which are allocation factors, as stratification factors.
Also, a Kaplan-Meier survival curve was drawn for each group to calculate the median time to alleviation of influenza symptoms and the 95% confidence interval thereof. The Greenwood's method was used for calculating the confidence interval.
Analysis of Secondary Endpoint
(1) Time Until Each Alleviation of Influenza Symptom
The same analysis as in the primary endpoint was performed, with the time until each alleviation of influenza symptom being regarded as a response. At this time, cases where the symptom before administration was “0: none” or “1: mild” were excluded from the analysis target.

[5] = Day 2 (24 hours later), 12 to <65 years old
[6] = Day 2 (24 hours later), 20 to <65 years old
[7] = Day 3 (48 hours later), 12 to <65 years old
[8] = Day 3 (48 hours later), 20 to <65 years old
[9] = Day 4 (72 hours later), 12 to <65 years old
[10] = Day 4 (72 hours later), 20 to <65 years old
[11] = Day 5 (96 hours later), 12 to <65 years old
[12] = Day 5 (96 hours later), 20 to <65 years old
[13] = Day 6 (120 hours later), 12 to <65 years old
[14] = Day 6 (120 hours later), 20 to <65 years old
[15] = Day 9 (192 hours later), 12 to <65 years old
[16] = Day 9 (192 hours later), 20 to <65 years old

COC(=O)OCOc1c2n(ccc1=O)N([C@@H]1c3ccccc3SCc3c1ccc(F)c3F)[C@@H]1COCCN1C2=O [II-6]
plasma concentration of Compound II-6 [1]: a determination limit or less
Time (median) to termination of viral shedding based on virus titer (influenza virus [2]; 12 to <65 years old): 24.0 h
Time to termination of viral shedding, difference between groups vs placebo (influenza virus [2]; 12 to <65 years old): -72.0 h
Time to termination of viral shedding, difference between groups vs Oseltamivir (influenza virus [2]; 20 to <65 years old): -48.0 h
Amount of change in virus titer from baseline, mean (influenza virus [2]; [5]): −4.44 log10 [TCID50/mL]
Proportion of patients having a positive influenza virus titer (influenza virus [2]; [5]): 47.8%
Amount of change in virus titer from baseline, mean (influenza virus [2]; [6]): −4.39 log10 [TCID50/mL]
Proportion of patients having a positive influenza virus titer (influenza virus [2]; [6]): 47.6%
Amount of change in virus titer from baseline, mean (influenza virus [2]; [7]): −4.82 log10 [TCID50/mL]
Proportion of patients having a positive influenza virus titer (influenza virus [2]; [7]): 21.5%
Amount of change in virus titer from baseline, mean (influenza virus [2]; [8]): −4.78 log10 [TCID50/mL]
Proportion of patients having a positive influenza virus titer (influenza virus [2]; [8]): 19.8%
Amount of change in virus titer from baseline, mean (influenza virus [2]; [9]): −4.50 log10 [TCID50/mL]
Proportion of patients having a positive influenza virus titer (influenza virus [2]; [9]): 16.7%
Amount of change in virus titer from baseline, mean (influenza virus [2]; [10]): −4.46 log10 [TCID50/mL]
Proportion of patients having a positive influenza virus titer (influenza virus [2]; [10]): 16.1%
Amount of change in virus titer from baseline, mean (influenza virus [2]; [11]): −4.95 log10 [TCID50/mL]
Proportion of patients having a positive influenza virus titer (influenza virus [2]; [11]): 13.6%
Amount of change in virus titer from baseline, mean (influenza virus [2]; [12]): −4.95 log10 [TCID50/mL]
Proportion of patients having a positive influenza virus titer (influenza virus [2]; [12]): 13.0%
Amount of change in virus titer from baseline, mean (influenza virus [2]; [13]): −4.58 log10 [TCID50/mL]
Proportion of patients having a positive influenza virus titer (influenza virus [2]; [13]): 8.2%
Amount of change in virus titer from baseline, mean (influenza virus [2]; [14]): −4.56 log10 [TCID50/mL]
Proportion of patients having a positive influenza virus titer (influenza virus [2]; [14]): 5.6%
Amount of change in virus titer from baseline, mean (influenza virus [2]; [15]): −5.06 log10 [TCID50/mL]
Proportion of patients having a positive influenza virus titer (influenza virus [2]; [15]): 2.9%
Amount of change in virus titer from baseline, mean (influenza virus [2]; [16]): −5.03 log10 [TCID50/mL]
Proportion of patients having a positive influenza virus titer (influenza virus [2]; [16]): 3.0%
Incidence of adverse events the causal relationship of which cannot be denied (patients) [3]: 4.4%
Time until cough symptom is alleviated, difference from placebo (influenza virus [4]; single oral 10 mg): -0.1 h
Time until cough symptom is alleviated, hazard ratio (Cox model relative to placebo) (influenza virus [4]; single oral 10 mg): 0.941
Time until fatigue symptom is alleviated, difference from placebo (influenza virus [4]; single oral 10 mg): -10.7 h
Time until fatigue symptom is alleviated, hazard ratio (Cox model relative to placebo) (influenza virus [4]; single oral 10 mg): 0.783
Time until feverishness or chills symptom is alleviated, difference from placebo (influenza virus [4]; single oral 10 mg): -4.1 h
Time until feverishness or chills symptom is alleviated, hazard ratio (Cox model relative to placebo) (influenza virus [4]; single oral 10 mg): 0.635
Time until headache symptom is alleviated, difference from placebo (influenza virus [4]; single oral 10 mg): -1.5 h
Time until headache symptom is alleviated, hazard ratio (Cox model relative to placebo) (influenza virus [4]; single oral 10 mg): 0.803
Time until muscular or joint pain symptom is alleviated, difference from placebo (influenza virus [4]; single oral 10 mg): -10.7 h
Time until muscular or joint pain symptom is alleviated, hazard ratio (Cox model relative to placebo) (influenza virus [4]; single oral 10 mg): 0.77
Time until nasal congestion symptom is alleviated, difference from placebo (influenza virus [4]; single oral 10 mg): -17.6 h
Time until nasal congestion symptom is alleviated, hazard ratio (Cox model relative to placebo) (influenza virus [4]; single oral 10 mg): 0.742
Time until sore throat symptom is alleviated, difference from placebo (influenza virus [4]; single oral 10 mg): 9.1 h
Time until sore throat symptom is alleviated, hazard ratio (Cox model relative to placebo) (influenza virus [4]; single oral 10 mg): 1.312
Time to alleviation of influenza symptoms, difference from placebo (influenza virus [4]; single oral 10 mg): -23.4 h
Time to alleviation of influenza symptoms, hazard ratio (Cox proportional hazard model relative to placebo) (influenza virus [4]; single oral 10 mg): 0.758
Time to alleviation of influenza symptoms, median value (influenza virus [4]; single oral 10 mg): 54.2 h
Time until cough symptom is alleviated, median value (influenza virus [4]; single oral 10 mg): 31.1 h
Time until fatigue symptom is alleviated, median value (influenza virus [4]; single oral 10 mg): 32 h
Time until feverishness or chills symptom is alleviated, median value (influenza virus [4]; single oral 10 mg): 24.7 h
Time until headache symptom is alleviated, median value (influenza virus [4]; single oral 10 mg): 42.2 h
Time until muscular or joint pain symptom is alleviated, median value (influenza virus [4]; single oral 10 mg): 31.2 h
Time until nasal congestion symptom is alleviated, median value (influenza virus [4]; single oral 10 mg): 25.2 h
Time until sore throat symptom is alleviated, median value (influenza virus [4]; single oral 10 mg): 35.3 h
Time until cough symptom is alleviated, difference from placebo (influenza virus [4]; single oral 20 mg): -1.4 h
Time until cough symptom is alleviated, hazard ratio (Cox model relative to placebo) (influenza virus [4]; single oral 20 mg): 0.883
Time until fatigue symptom is alleviated, difference from placebo (influenza virus [4]; single oral 20 mg): -11.5 h
Time until fatigue symptom is alleviated, hazard ratio (Cox model relative to placebo) (influenza virus [4]; single oral 20 mg): 0.876
Time until feverishness or chills symptom is alleviated, difference from placebo (influenza virus [4]; single oral 20 mg): 0.6 h
Time until feverishness or chills symptom is alleviated, hazard ratio (Cox model relative to placebo) (influenza virus [4]; single oral 20 mg): 0.848
Time until headache symptom is alleviated, difference from placebo (influenza virus [4]; single oral 20 mg): -6.7 h
Time until headache symptom is alleviated, hazard ratio (Cox model relative to placebo) (influenza virus [4]; single oral 20 mg): 0.936
Time until muscular or joint pain symptom is alleviated, difference from placebo (influenza virus [4]; single oral 20 mg): -12 h
Time until muscular or joint pain symptom is alleviated, hazard ratio (Cox model relative to placebo) (influenza virus [4]; single oral 20 mg): 0.687
Time until nasal congestion symptom is alleviated, difference from placebo (influenza virus [4]; single oral 20 mg): -21.3 h
Time until nasal congestion symptom is alleviated, hazard ratio (Cox model relative to placebo) (influenza virus [4]; single oral 20 mg): 0.59
Time until sore throat symptom is alleviated, difference from placebo (influenza virus [4]; single oral 20 mg): 1.5 h
Time until sore throat symptom is alleviated, hazard ratio (Cox model relative to placebo) (influenza virus [4]; single oral 20 mg): 1.05
Time to alleviation of influenza symptoms, difference from placebo (influenza virus [4]; single oral 20 mg): -26.6 h
Time to alleviation of influenza symptoms, hazard ratio (Cox proportional hazard model relative to placebo) (influenza virus [4]; single oral 20 mg): 0.81
Time to alleviation of influenza symptoms, median value (influenza virus [4]; single oral 20 mg): 51.0 h and 51 h
Time until cough symptom is alleviated, median value (influenza virus [4]; single oral 20 mg): 29.8 h
Time until fatigue symptom is alleviated, median value (influenza virus [4]; single oral 20 mg): 31.3 h
Time until feverishness or chills symptom is alleviated, median value (influenza virus [4]; single oral 20 mg): 29.4 h
Time until headache symptom is alleviated, median value (influenza virus [4]; single oral 20 mg): 37 h
Time until muscular or joint pain symptom is alleviated, median value (influenza virus [4]; single oral 20 mg): 29.9 h
Time until nasal congestion symptom is alleviated, median value (influenza virus [4]; single oral 20 mg): 21.6 h
Time until sore throat symptom is alleviated, median value (influenza virus [4]; single oral 20 mg): 27.8 h
Time until cough symptom is alleviated, difference from placebo (influenza virus [4]; single oral 40 mg): -6.6 h
Time until cough symptom is alleviated, hazard ratio (Cox model relative to placebo) (influenza virus [4]; single oral 40 mg): 0.865
Time until fatigue symptom is alleviated, difference from placebo (influenza virus [4]; single oral 40 mg): -11.7 h
Time until fatigue symptom is alleviated, hazard ratio (Cox model relative to placebo) (influenza virus [4]; single oral 40 mg): 0.724
Time until feverishness or chills symptom is alleviated, difference from placebo (influenza virus [4]; single oral 40 mg): -5.8 h
Time until feverishness or chills symptom is alleviated, hazard ratio (Cox model relative to placebo) (influenza virus [4]; single oral 40 mg): 0.71
Time until headache symptom is alleviated, difference from placebo (influenza virus [4]; single oral 40 mg): -5.8 h
Time until headache symptom is alleviated, hazard ratio (Cox model relative to placebo) (influenza virus [4]; single oral 40 mg): 0.655
Time until muscular or joint pain symptom is alleviated, hazard ratio (Cox model relative to placebo) (influenza virus [4]; single oral 40 mg): 0.657
Time until nasal congestion symptom is alleviated, hazard ratio (Cox model relative to placebo) (influenza virus [4]; single oral 40 mg): 0.564
Time until sore throat symptom is alleviated, difference from placebo (influenza virus [4]; single oral 40 mg): 5.6 h
Time until sore throat symptom is alleviated, hazard ratio (Cox model relative to placebo) (influenza virus [4]; single oral 40 mg): 1.092
Time to alleviation of influenza symptoms, difference from placebo (influenza virus [4]; single oral 40 mg): -28.2 h
Time to alleviation of influenza symptoms, hazard ratio (Cox proportional hazard model relative to placebo) (influenza virus [4]; single oral 40 mg): 0.817
Time to alleviation of influenza symptoms, median value (influenza virus [4]; single oral 40 mg): 49.5 h
Time until cough symptom is alleviated, median value (influenza virus [4]; single oral 40 mg): 24.6 h
Time until fatigue symptom is alleviated, median value (influenza virus [4]; single oral 40 mg): 31.1 h
Time until feverishness or chills symptom is alleviated, median value (influenza virus [4]; single oral 40 mg): 23 h
Time until headache symptom is alleviated, median value (influenza virus [4]; single oral 40 mg): 37.9 h
Time until muscular or joint pain symptom is alleviated, median value (influenza virus [4]; single oral 40 mg): 25.4 h
Time until nasal congestion symptom is alleviated, median value (influenza virus [4]; single oral 40 mg): 21.9 h
Time until sore throat symptom is alleviated, median value (influenza virus [4]; single oral 40 mg): 31.9 h
